{"source": "ChEMBL document CHEMBL1140557", "about": "“SAR studies of 1,5-diarylpyrazole-based CCK1 receptor antagonists” (Bioorg Med Chem Lett, 2007)", "key": {"[1]": {"test": "Oral bioavailability in rat at 2 umol/kg", "type": "ADME, organism-based", "details": "in vivo"}, "[2]": {"test": "Half life in rat", "type": "ADME, organism-based", "details": "in vivo"}}}
{"molecule": "COc1ccc(-n2nc(C[C@H](C(=O)O)c3cccc(C)c3)cc2-c2ccc(Cl)c(Cl)c2)cc1", "values": [{"measurement": "bioavailability", "setting": "[1]", "result": 100, "unit": "%"}, {"measurement": "half-life", "setting": "[2]", "result": 5.6, "unit": "h"}]}
